Reference: patent US20240217947A1, “Morpholinylquinazoline Compound, Pharmaceutical compositions thereof and Use Thereof” (SHANGHAI YINGLI PHARMACEUTICAL CO., LTD, priority 2022, published 2024)

Experiments:
PI3Kδ = PI3Kδ (Homo sapiens, UniProt O00329); test: PI3Kδ enzyme activity inhibition IC50 evaluation assay (ADP-Glo Kinase Assay); type: biochemical; conditions: ATP 25 μM, PIP2 50 μg/mL, 1 hour room temperature, read-out: PI3K-δ IC50
Experimental: Effec Example 1 IC50 evaluation assay for PI3Kα, PI3Kδ, PI3Kβ and PI3Kγ enzyme activity inhibition
The experiment was performed using the ADP-Glo Kinase Assay kit, following the instructions. The following buffer solutions were prepared: 50 mM HEPES, pH 7.5, 3 mM MgCl2, 1 mM EGTA, 100 mM NaCl, 0.03% CHAPS, 2 mM DTT. The test compound samples were dissolved in DMSO and added to the screening system at a certain starting concentration such as 10 μM, 3-fold dilution, while setting up both DMSO control and no kinase control. The optimal concentrations of PI3Kα, PI3Kδ, PI3Kβ and PI3Kγ enzymes, substrate (PIP2) and ATP were prepared in buffer. The enzyme reaction system included: buffer, ATP 25 μM, kinase substrate (PIP2, 50 μg/mL), kinases [PI3Kα (0.15 μg/mL), PI3Kδ (1.2 μg/mL), PI3Kβ (0.3 μg/mL) and PI3Kγ (2.5 μg/mL)], etc. The reaction system was reacted at room temperature for 1 hour. The reaction was terminated by adding a termination reagent (ADP-Glo reagent, 5 μL), and the ADP content in the system was detected using a detection reagent (Kinase Detection Reagent, 10 μL). Signal data were collected using the Envision instrument. Calculate the percentage of (%) inhibition according to the following formula: % inhibition=(DMSO control signal value−sample signal value)/(DMSO control signal value−no-kinase control signal value). The IC50 value was obtained by fitting the curve using the formula Y=Bottom+(Top-Bottom)/(1+(IC50/X)^HillSlope).

HDAC6 = molecular target: T1, HDAC6 (Homo sapiens, UniProt Q9UBN7); test: HDAC6 enzyme activity inhibition IC50 evaluation experiment; type: biochemical; conditions: HDAC6 5 nM, acetylated peptide 11 μM, trypsin, fluorescence
T1 sequence (Q9UBN7 1-1215): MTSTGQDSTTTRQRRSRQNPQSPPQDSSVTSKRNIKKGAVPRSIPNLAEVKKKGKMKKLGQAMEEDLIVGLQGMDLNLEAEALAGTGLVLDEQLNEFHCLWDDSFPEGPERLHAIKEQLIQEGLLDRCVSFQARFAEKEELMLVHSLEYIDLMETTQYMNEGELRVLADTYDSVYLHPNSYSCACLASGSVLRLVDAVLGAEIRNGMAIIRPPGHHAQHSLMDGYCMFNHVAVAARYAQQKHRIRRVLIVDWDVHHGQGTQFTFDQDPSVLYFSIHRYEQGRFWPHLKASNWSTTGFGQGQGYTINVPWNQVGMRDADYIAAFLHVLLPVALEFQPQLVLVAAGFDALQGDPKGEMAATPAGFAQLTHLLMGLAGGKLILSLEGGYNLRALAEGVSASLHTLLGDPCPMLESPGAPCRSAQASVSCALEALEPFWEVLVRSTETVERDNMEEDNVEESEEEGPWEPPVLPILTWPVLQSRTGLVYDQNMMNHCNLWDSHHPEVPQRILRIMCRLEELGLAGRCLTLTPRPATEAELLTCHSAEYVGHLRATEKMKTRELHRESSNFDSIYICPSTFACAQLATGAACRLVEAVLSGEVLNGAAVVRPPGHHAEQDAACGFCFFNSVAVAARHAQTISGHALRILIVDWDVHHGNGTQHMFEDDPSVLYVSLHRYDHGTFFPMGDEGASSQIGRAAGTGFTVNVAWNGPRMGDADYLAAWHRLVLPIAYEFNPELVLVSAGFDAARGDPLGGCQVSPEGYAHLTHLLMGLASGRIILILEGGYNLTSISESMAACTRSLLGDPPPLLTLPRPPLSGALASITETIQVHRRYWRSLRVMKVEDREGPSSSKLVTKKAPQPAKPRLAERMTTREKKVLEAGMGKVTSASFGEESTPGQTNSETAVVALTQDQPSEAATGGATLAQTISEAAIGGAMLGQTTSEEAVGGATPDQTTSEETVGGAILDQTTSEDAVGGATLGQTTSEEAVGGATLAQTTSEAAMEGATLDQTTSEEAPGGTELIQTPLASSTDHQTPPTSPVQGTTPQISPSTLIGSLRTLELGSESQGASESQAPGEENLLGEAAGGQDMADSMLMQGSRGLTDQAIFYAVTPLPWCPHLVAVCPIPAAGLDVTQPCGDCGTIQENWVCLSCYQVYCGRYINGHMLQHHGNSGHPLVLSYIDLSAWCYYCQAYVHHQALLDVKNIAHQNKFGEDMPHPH
Experimental: Effect Example 2 HDAC1, HDAC2, HDAC3, HDAC6 enzyme activity inhibition IC50 evaluation experiment
Buffer solution (50 mM Tris 7.5, 0.01% Tween-20, 50 mM NaCl) was prepared according to the kit instructions, and the enzyme solution and substrate solution (acetylated peptide with the addition of trypsin) were prepared using the buffer solution. The test compound samples were dissolved with DMSO and added to the screening system at a certain starting concentration such as 10 μM, 3-fold dilution, while setting up a DMSO control and no-enzyme control. The enzyme reaction system includes: buffer, enzyme [final concentration: HDAC1=10 nM, HDAC2=4 nM, HDAC3=7 nM, HDAC6=5 nM], substrate (acetylated peptide) [final concentration: Peptide(HDAC1)=8 μM, Peptide(HDAC2)=10 μM, Peptide(HDAC3)=5 μM, Peptide(HDAC6)=11 μM], trypsin [final concentration: Trypsin(HDAC1,2,3)=0.05 μM, Trypsin(HDAC6)=0.1 μM], etc. The enzymes and compounds were reacted at room temperature for 15 min. After adding the substrate and Trypsin, centrifugation was performed for 1 min, and the fluorescence signal data (excitation wavelength 355 nM/emission wavelength 460 nm) was read continuously for 60 min using Envision, and the linear reaction segment was selected to obtain the slope and thus calculate the inhibition rate at that concentration. The IC50 value was obtained by fitting the curve using the formula Y=Bottom+(Top-Bottom)/(1+(IC50/X)^HillSlope).

PI3Kδ, sequence (O00329 whole entry, species assumed): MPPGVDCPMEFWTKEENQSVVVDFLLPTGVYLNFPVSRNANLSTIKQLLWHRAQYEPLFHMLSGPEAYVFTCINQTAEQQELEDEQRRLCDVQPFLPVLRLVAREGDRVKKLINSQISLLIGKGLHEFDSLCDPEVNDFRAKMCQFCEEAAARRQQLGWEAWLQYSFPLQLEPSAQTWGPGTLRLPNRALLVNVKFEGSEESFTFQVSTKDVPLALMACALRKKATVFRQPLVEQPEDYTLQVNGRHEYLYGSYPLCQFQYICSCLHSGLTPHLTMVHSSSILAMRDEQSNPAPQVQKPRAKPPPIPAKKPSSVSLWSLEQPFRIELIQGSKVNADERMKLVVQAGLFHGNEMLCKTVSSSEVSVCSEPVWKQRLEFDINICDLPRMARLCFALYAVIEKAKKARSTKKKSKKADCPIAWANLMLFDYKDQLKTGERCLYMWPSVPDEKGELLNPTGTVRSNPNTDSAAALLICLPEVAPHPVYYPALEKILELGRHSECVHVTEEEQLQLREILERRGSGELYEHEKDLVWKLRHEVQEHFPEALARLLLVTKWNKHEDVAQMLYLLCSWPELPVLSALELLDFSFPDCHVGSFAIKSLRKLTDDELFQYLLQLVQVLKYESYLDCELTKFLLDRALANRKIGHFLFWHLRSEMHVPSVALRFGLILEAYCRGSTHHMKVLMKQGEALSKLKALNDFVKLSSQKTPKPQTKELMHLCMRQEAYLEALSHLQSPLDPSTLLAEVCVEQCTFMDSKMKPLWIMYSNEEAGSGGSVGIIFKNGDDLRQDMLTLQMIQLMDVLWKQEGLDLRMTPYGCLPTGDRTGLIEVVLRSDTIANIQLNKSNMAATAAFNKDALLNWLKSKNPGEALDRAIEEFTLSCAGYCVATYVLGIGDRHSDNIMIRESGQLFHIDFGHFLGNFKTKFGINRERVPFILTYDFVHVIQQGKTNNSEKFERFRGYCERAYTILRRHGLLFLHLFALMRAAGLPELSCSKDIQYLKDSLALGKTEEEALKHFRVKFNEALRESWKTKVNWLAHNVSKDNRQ
PI3Kδ, sequence (P27986 whole entry partner, species assumed): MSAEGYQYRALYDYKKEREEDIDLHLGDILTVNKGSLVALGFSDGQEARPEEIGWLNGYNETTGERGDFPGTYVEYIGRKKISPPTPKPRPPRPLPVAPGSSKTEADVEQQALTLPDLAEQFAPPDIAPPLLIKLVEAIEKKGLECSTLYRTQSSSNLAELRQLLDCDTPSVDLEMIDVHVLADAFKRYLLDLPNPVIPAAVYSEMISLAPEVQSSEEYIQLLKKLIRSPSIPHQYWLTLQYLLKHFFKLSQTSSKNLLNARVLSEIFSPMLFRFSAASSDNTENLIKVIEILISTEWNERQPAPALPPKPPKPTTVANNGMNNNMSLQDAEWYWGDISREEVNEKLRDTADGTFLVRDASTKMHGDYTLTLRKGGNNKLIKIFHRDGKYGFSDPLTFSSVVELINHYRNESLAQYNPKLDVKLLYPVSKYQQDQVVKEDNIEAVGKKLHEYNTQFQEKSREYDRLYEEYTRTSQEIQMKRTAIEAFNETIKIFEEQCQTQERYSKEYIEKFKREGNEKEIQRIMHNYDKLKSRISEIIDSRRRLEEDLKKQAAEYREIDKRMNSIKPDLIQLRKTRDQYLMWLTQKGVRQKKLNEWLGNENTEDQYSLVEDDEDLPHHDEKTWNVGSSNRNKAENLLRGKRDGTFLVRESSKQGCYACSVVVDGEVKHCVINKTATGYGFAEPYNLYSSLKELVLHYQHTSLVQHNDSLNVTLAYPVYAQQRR

| IC50 (PI3Kδ) [µM] | IC50 (HDAC6) [µM] | SMILES |
| --- | --- | --- |
| 0.01 to 0.1 | 0.01 to 0.1 | COc1ncc(-c2nc(N3CCOCC3)nc3c(OC4CCN(c5ncc(C(=O)NO)cc5F)CC4)cc(F)cc23)cc1NS(C)(=O)=O [Compound 30] |
| ≤ 0.01 | 0.1 to 1 | COc1ncc(-c2nc(N3CCOCC3)nc3c(OC4CCN(c5ncc(C(=O)NO)cn5)CC4)cc(F)cc23)cc1NS(C)(=O)=O [Compound 39] |
| ≤ 0.01 | 0.01 to 0.1 | COc1ncc(-c2nc(N3CCOCC3)nc3c(OC4CCN(c5ccc(C(=O)NO)cn5)CC4)cc(F)cc23)cc1NS(C)(=O)=O [Compound 40] |

The remaining lines, values behind:

| SMILES | IC50 (PI3Kδ) [µM] | IC50 (HDAC6) [µM] |
| --- | --- | --- |
| COc1ncc(-c2nc(N3CCOCC3)nc3c(CN4CCN(c5ncc(C(=O)NO)cn5)CC4)cc(F)cc23)cc1NS(C)(=O)=O [Compound 7] | ≤ 0.01 | 0.01 to 0.1 |
| COc1ncc(-c2nc(N3CCOCC3)nc3c(OCCCCCCC(=O)NO)cc(F)cc23)cc1NS(C)(=O)=O [Compound 9] | 0.01 to 0.1 | ≤ 0.01 |
